Measurements from PubChem BioAssay (NCI).
Where “and” joins values, the source holds several entries; their conditions need not be identical. Equal values may be shown once.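 Step 1: Grow cells in 96-well plates. Step 2: Expose to compound for 48 hours at 5 concentrations. Step 3: Interpolate endpoints linearly; if unreached, use highest concentration. At the GI50, growth is halved. TGI denotes the concentration required for complete inhibition of growth.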

Experiments:
Test in all cases: inhibition of tumour cell growth, NCI panel, 48 h
K-562 leukemia = test system: K-562 leukemia
HCT-15 colon = test system: HCT-15 colon
NCI-H460 lung = test system: NCI-H460 lung
NCI-H522 lung = test system: NCI-H522 lung
HT29 colon = test system: HT29 colon
SK-MEL-5 melanoma = test system: SK-MEL-5 melanoma
HOP-62 NSCLC = test system: HOP-62 NSCLC
HS 578T breast = test system: HS 578T breast
786-0 renal = test system: 786-0 renal
HCT-116 colon = test system: HCT-116 colon

## O=C1c2ccccc2C(=O)c2c(/C=C\N3CCCCC3)ccnc21
K-562 leukemia
  TGI: 36 µM
HCT-15 colon
  TGI: 6.41 µM
NCI-H460 lung
  TGI: 4.91 µM
NCI-H522 lung
  TGI: 13.3 µM
HT29 colon
  TGI: 15.1 µM
SK-MEL-5 melanoma
  TGI: 1.1 µM
HOP-62 NSCLC
  TGI: 13.9 µM
HS 578T breast
  TGI: 4.32 µM
786-0 renal
  TGI: 31.3 µM
HCT-116 colon
  TGI: 5.89 µM

## CCNC(=O)C#Cc1ccc2c(C(=Nc3ccc(CN(C)C)cc3)c3ccccc3)c(O)[nH]c2c1
K-562 leukemia
  GI50: 0.344 µM
  TGI: 3.92 µM
HCT-15 colon
  GI50: 0.392 µM
  TGI: 4.62 µM
NCI-H460 lung
  GI50: 0.0106 µM
  TGI: 1.96 µM
NCI-H522 lung
  GI50: 1260 nM
  TGI: > 5.39 µM
HT29 colon
  GI50: 13 nM
  TGI: 1.39 µM
SK-MEL-5 melanoma
  GI50: 307 nM
  TGI: 1.84 µM
HOP-62 NSCLC
  GI50: 0.109 µM
  TGI: > 3.76 µM
HS 578T breast
  GI50: 0.291 µM
  TGI: 1.66 µM
786-0 renal
  GI50: 0.356 µM
  TGI: 2 µM
HCT-116 colon
  GI50: 14.7 nM
  TGI: 1.07 µM

## Cn1cc(-c2cc3c(N4CCN(c5ncc([C@@](C)(N)c6ccc(F)cc6)cn5)CC4)ncnn3c2)cn1
K-562 leukemia
  GI50: 2.49 µM
  TGI: > 100 µM
HCT-15 colon
  GI50: 3.62 µM
  TGI: > 100 µM
NCI-H460 lung
  GI50: 4.41 µM
  TGI: > 100 µM
HT29 colon
  GI50: 3350 nM
  TGI: > 100 µM
HOP-62 NSCLC
  GI50: 6.31 µM
  TGI: > 100 µM
HS 578T breast
  GI50: 1.82 µM
  TGI: > 100 µM
786-0 renal
  GI50: 3.15 µM
  TGI: > 100 µM
HCT-116 colon
  GI50: 3150 nM
  TGI: > 100 µM

## CN1CCN(c2ccc(Nc3ncc(Cl)c(NC[C@@H]4CCCO4)n3)cc2)CC1
K-562 leukemia
  GI50: 2.94 µM
  TGI: > 100 µM
HCT-15 colon
  GI50: 2.04 µM
  TGI: > 100 µM
NCI-H460 lung
  GI50: 0.573 µM
  TGI: 6.55 µM
NCI-H522 lung
  GI50: 1520 nM
  TGI: 10.9 µM
HT29 colon
  GI50: 1720 nM
  TGI: > 100 µM
SK-MEL-5 melanoma
  GI50: 2520 nM
  TGI: 13.6 µM
HOP-62 NSCLC
  GI50: 0.705 µM
  TGI: 4.61 µM
HS 578T breast
  GI50: 1.32 µM
  TGI: 11.2 µM
786-0 renal
  GI50: 1.68 µM
  TGI: 15.1 µM

## N#CC(C(=O)CCC(=O)Nc1ccc(Cl)c(Cl)c1)c1ccccc1 (stereo unspecified)
K-562 leukemia
  TGI: > 100 µM
HCT-15 colon
  TGI: > 100 µM
HT29 colon
  TGI: > 100 µM
SK-MEL-5 melanoma
  TGI: > 100 µM
HOP-62 NSCLC
  TGI: > 100 µM
786-0 renal
  TGI: > 100 µM
HCT-116 colon
  TGI: > 100 µM

## O=C(Nc1nc(=S)[nH][nH]1)C(=O)C(C(=O)c1ccc2ccccc2c1)C1OC(=O)c2ccccc21 (stereo unspecified)
K-562 leukemia
  TGI: 82.9 µM
HCT-15 colon
  TGI: 78.5 µM
NCI-H460 lung
  TGI: > 100 µM
NCI-H522 lung
  TGI: 65.3 µM
HT29 colon
  TGI: > 100 µM
SK-MEL-5 melanoma
  TGI: 43.9 µM
HOP-62 NSCLC
  TGI: 45.4 µM
786-0 renal
  TGI: 49.5 µM
HCT-116 colon
  TGI: 27.6 µM

## O=C(NC1C=CCC2C(=O)N(c3ccccc3)C(=O)C12)OCc1ccccc1 (stereo unspecified)
K-562 leukemia
  TGI: > 100 µM
NCI-H460 lung
  TGI: > 100 µM
NCI-H522 lung
  TGI: > 100 µM
HT29 colon
  TGI: > 100 µM
SK-MEL-5 melanoma
  TGI: > 100 µM
HOP-62 NSCLC
  TGI: > 100 µM
786-0 renal
  TGI: > 100 µM
HCT-116 colon
  TGI: > 100 µM

## CN1C(=O)C(=O)N2c3ccc(Cl)cc3C3(c4ccccc4)N=CC12O3 (stereo unspecified)
K-562 leukemia
  TGI: 19.9 µM
HCT-15 colon
  TGI: 13.3 µM
NCI-H460 lung
  TGI: 25.8 µM
NCI-H522 lung
  TGI: 9.14 µM
HT29 colon
  TGI: 16.1 µM
SK-MEL-5 melanoma
  TGI: 17.6 µM
HOP-62 NSCLC
  TGI: 30.7 µM
786-0 renal
  TGI: 28.9 µM
HCT-116 colon
  TGI: 13.2 µM

## CCC(C)SC1SCC2C(=O)N(C)C3(CC3C)C(=O)OCC(NC(=O)c3nc4ccccc4cc3O)C(=O)NC(C)C(=O)N(C)C1C(=O)N(C)C1(CC1C)C(=O)OCC(NC(=O)c1nc3ccccc3cc1O)C(=O)NC(C)C(=O)N2C (stereo unspecified)
HCT-15 colon
  TGI: 0.0538 µM
NCI-H460 lung
  TGI: 0.0262 µM
NCI-H522 lung
  GI50: 0.0185 nM
  TGI: 0.00022 µM
HT29 colon
  GI50: 0.0148 nM
  TGI: 0.00788 µM
SK-MEL-5 melanoma
  GI50: 0.0291 nM
  TGI: 0.000112 µM and < 0.0142 µM
HOP-62 NSCLC
  TGI: 0.00155 µM
HS 578T breast
  TGI: 0.000309 µM
786-0 renal
  TGI: 1.3 µM
HCT-116 colon
  GI50: 0.0288 nM

## Cc1nc(-c2nc(C)c(C(=O)NNC(=O)C[n+]3ccccc3)s2)sc1C(=O)NNC(=O)C[n+]1ccccc1
K-562 leukemia
  TGI: > 100 µM
HCT-15 colon
  TGI: > 100 µM
NCI-H460 lung
  TGI: > 100 µM
HT29 colon
  TGI: > 100 µM
SK-MEL-5 melanoma
  TGI: > 100 µM
HOP-62 NSCLC
  TGI: > 100 µM
786-0 renal
  TGI: > 100 µM
HCT-116 colon
  TGI: > 100 µM

## CN(C)CC(O)c1ccc(/C=C/c2ccc(Cl)cc2)cc1 (stereo unspecified)
K-562 leukemia
  GI50: 1.14 µM
  TGI: 3.55 µM
HCT-15 colon
  GI50: 1.62 µM
  TGI: 3.32 µM
NCI-H460 lung
  GI50: 1.45 µM
  TGI: 2.75 µM
SK-MEL-5 melanoma
  GI50: 3490 nM
  TGI: 13.7 µM
HOP-62 NSCLC
  GI50: 3.13 µM
  TGI: 14 µM
HS 578T breast
  GI50: 1.49 µM
  TGI: 3.21 µM
786-0 renal
  GI50: 1.63 µM
  TGI: 2.99 µM
HCT-116 colon
  GI50: 1460 nM
  TGI: 2.78 µM

## CC1(C)CC(c2c[nH]c3ccccc23)=CC2=Nc3ccccc3C21O (stereo unspecified)
K-562 leukemia
  TGI: > 100 µM
HCT-15 colon
  TGI: > 100 µM
NCI-H460 lung
  TGI: > 100 µM
NCI-H522 lung
  TGI: > 100 µM
HT29 colon
  TGI: > 100 µM
SK-MEL-5 melanoma
  TGI: > 100 µM
HOP-62 NSCLC
  TGI: > 100 µM
786-0 renal
  TGI: > 100 µM
HCT-116 colon
  TGI: > 100 µM

## Clc1ccc2cccc3c2c1C1OC3c2ccccc21 (stereo unspecified)
K-562 leukemia
  TGI: > 100 µM
NCI-H522 lung
  TGI: > 100 µM
HT29 colon
  TGI: > 100 µM
HOP-62 NSCLC
  TGI: > 100 µM
786-0 renal
  TGI: > 100 µM
HCT-116 colon
  TGI: > 100 µM

## Cc1cc(Nc2ccc(C)c(Cl)c2)n2nc(C(F)(F)F)nc2n1
K-562 leukemia
  GI50: 16 µM
  TGI: > 100 µM
HCT-15 colon
  GI50: 23.6 µM
  TGI: > 100 µM
NCI-H460 lung
  GI50: 20.9 µM
  TGI: 78.7 µM
HT29 colon
  GI50: 26600 nM
  TGI: > 100 µM
SK-MEL-5 melanoma
  GI50: 14300 nM
  TGI: 27.9 µM
HOP-62 NSCLC
  GI50: 30.8 µM
  TGI: 98.9 µM
HS 578T breast
  GI50: 22.6 µM
  TGI: 77.4 µM
786-0 renal
  GI50: 18.8 µM
  TGI: 40 µM
HCT-116 colon
  GI50: 17200 nM
  TGI: 46.2 µM

## S=P1(Oc2ccccc2)NNP2(=NP(N3CC3)(N3CC3)=NP(N3CC3)(N3CC3)=N2)NN1 (stereo unspecified)
K-562 leukemia
  TGI: > 100 µM
HCT-15 colon
  TGI: > 100 µM
NCI-H460 lung
  TGI: > 100 µM
NCI-H522 lung
  TGI: > 100 µM
HT29 colon
  TGI: > 100 µM
SK-MEL-5 melanoma
  TGI: > 100 µM
HOP-62 NSCLC
  TGI: > 100 µM
786-0 renal
  TGI: > 100 µM
HCT-116 colon
  TGI: > 100 µM

## CCOC(=O)C1Sc2ccccc2N=C1C (stereo unspecified)
K-562 leukemia
  TGI: > 100 µM
HCT-15 colon
  TGI: > 100 µM
NCI-H460 lung
  TGI: > 100 µM
NCI-H522 lung
  TGI: > 100 µM
HT29 colon
  TGI: > 100 µM
HOP-62 NSCLC
  TGI: > 100 µM
786-0 renal
  TGI: > 100 µM
HCT-116 colon
  TGI: > 100 µM

## CC(=O)[O-].CC(=O)[O-].O=C(N/N=C/c1cc(Cl)cc(Cl)c1O)c1ccncc1.[Cu+2]
K-562 leukemia
  TGI: > 100 µM
HCT-15 colon
  TGI: > 100 µM
NCI-H460 lung
  TGI: > 100 µM
NCI-H522 lung
  TGI: > 100 µM
HT29 colon
  TGI: > 100 µM
SK-MEL-5 melanoma
  TGI: > 100 µM
HOP-62 NSCLC
  TGI: > 100 µM
786-0 renal
  TGI: > 100 µM
HCT-116 colon
  TGI: > 100 µM

## Cc1ccc(-c2nc(N3CCNCC3)c3oc(-c4ccc(C)cc4)nc3n2)cc1
K-562 leukemia
  GI50: 1.81 µM
  TGI: 4.51 µM
HCT-15 colon
  GI50: 1.72 µM
  TGI: 3.28 µM
NCI-H460 lung
  GI50: 2.03 µM
  TGI: 4.41 µM
NCI-H522 lung
  GI50: 14200 nM
  TGI: 36.1 µM
HT29 colon
  GI50: 1880 nM
  TGI: 3.42 µM
SK-MEL-5 melanoma
  GI50: > 39200 nM
  TGI: > 53.9 µM
HOP-62 NSCLC
  GI50: 10.1 µM
  TGI: > 100 µM
HS 578T breast
  TGI: > 24.2 µM
786-0 renal
  GI50: 1.69 µM
  TGI: 3.24 µM

## O=C(O)CSc1n[nH]c(-c2ccccc2O)n1
K-562 leukemia
  TGI: > 100 µM
HCT-15 colon
  TGI: > 100 µM
NCI-H460 lung
  TGI: > 100 µM
HT29 colon
  TGI: > 100 µM
SK-MEL-5 melanoma
  TGI: > 100 µM
786-0 renal
  TGI: > 100 µM
HCT-116 colon
  TGI: > 100 µM
